Values of other authors, collected in patent US20150132347A1, “TREATING INFLAMMATORY CONDITIONS AND IMPROVING ORAL HYGIENE USING METAL MODULATORS WITH METHYLSULFONYLMETHANE AS TRANSPORT ENHANCER” (priority 2012, published 2015).

Details: in water @ 79° F.

Compound: CS(C)(=O)=O [MSM, methylsulfonylmethane]
- water solubility: 34 % w/v
